Converted amounts (≈) assume the structure as drawn.
What was measured:
[1] = molecular target: T1, Gil1 (Citrobacter gillenii) (UniProt A4KCT8); experiment: Ratio of kcat to Km of Citrobacter gillenii CIP 106783 Beta-lactamase GIL1 expressed in Escherichia coli DH10B relative to benzyl-penicillin; design: unit not given here
T1 sequence (whole entry): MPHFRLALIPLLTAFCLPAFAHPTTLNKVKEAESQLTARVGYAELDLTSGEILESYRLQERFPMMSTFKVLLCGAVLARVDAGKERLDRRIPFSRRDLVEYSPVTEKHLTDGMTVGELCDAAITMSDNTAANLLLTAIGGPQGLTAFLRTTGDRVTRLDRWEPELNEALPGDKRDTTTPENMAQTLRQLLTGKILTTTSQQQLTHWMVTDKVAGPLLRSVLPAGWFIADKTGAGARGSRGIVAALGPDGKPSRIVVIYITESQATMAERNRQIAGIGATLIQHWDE

Escherichia coli [2] = experiment: Antimicrobial activity against Escherichia coli DH10B expressing GIL1 after 18 hrs by […]; format: functional
Citrobacter gillenii = experiment: Antimicrobial activity against Citrobacter gillenii CIP 106783 after 18 hrs by […]; format: functional; details: CIP 106783, 18 h
Escherichia coli [3] = experiment: Antimicrobial activity against Escherichia coli DH10B after 18 hrs by […]; format: functional
[4] = substrate: CC(=O)OCC1=C(C(=O)O)N2C(=O)[C@@H](NC(=O)Cc3cccs3)[C@H]2SC1; experiment: (§1) Activity of Citrobacter gillenii CIP 106783 Beta-lactamase GIL1 expressed in Escherichia coli DH10B
[5] = substrate: CC(C)(O/N=C(\C(=O)N[C@@H]1C(=O)N2C(C(=O)[O-])=C(C[n+]3ccccc3)CS[C@H]12)c1csc(N)n1)C(=O)O; experiment: as §1
[6] = substrate: CC1(C)S[C@@H]2[C@H](NC(=O)Cc3ccccc3)C(=O)N2[C@H]1C(=O)O; experiment: as §1
[7] = substrate: CC1(C)S[C@@H]2[C@H](NC(=O)[C@H](C(=O)O)c3ccsc3)C(=O)N2[C@H]1C(=O)O; experiment: as §1
[8] = substrate: CC1(C)S[C@@H]2[C@H](NC(=O)[C@H](N)c3ccc(O)cc3)C(=O)N2[C@H]1C(=O)O; experiment: as §1
[9] = substrate: CCN1CCN(C(=O)N[C@@H](C(=O)N[C@@H]2C(=O)N3[C@@H]2SC(C)(C)[C@@H]3C(=O)O)c2ccccc2)C(=O)C1=O; experiment: as §1
[10] = substrate: CO/N=C(\C(=O)N[C@@H]1C(=O)N2C(C(=O)O)=C(COC(C)=O)CS[C@H]12)c1csc(N)n1; experiment: as §1
[11] = substrate: CO/N=C(\C(=O)N[C@@H]1C(=O)N2C(C(=O)O)=C(COC(N)=O)CS[C@H]12)c1ccco1; experiment: as §1
[12] = substrate: CO/N=C(\C(=O)N[C@@H]1C(=O)N2C(C(=O)[O-])=C(C[N+]3(C)CCCC3)CS[C@H]12)c1csc(N)n1; experiment: as §1
[13] = substrate: CO/N=C(\C(=O)N[C@@H]1C(=O)N2C(C(=O)[O-])=C(C[n+]3cccc4c3CCC4)CS[C@H]12)c1csc(N)n1; experiment: as §1
[14] = substrate: C[C@@H](O)[C@H]1C(=O)N2C(C(=O)O)=C(SCCNC=N)C[C@H]12; experiment: as §1
[15] = substrate: C[C@H]1[C@H](NC(=O)/C(=N\OC(C)(C)C(=O)O)c2csc(N)n2)C(=O)N1S(=O)(=O)O; experiment: as §1

## CC1(C)S[C@@H]2[C@H](NC(=O)Cc3ccccc3)C(=O)N2[C@H]1C(=O)O
[1]
  Ratio: 100

## CO/N=C(\C(=O)N[C@@H]1C(=O)N2C(C(=O)[O-])=C(C[N+]3(C)CCCC3)CS[C@H]12)c1csc(N)n1
Escherichia coli [2]
  MIC: 0.12 µg/mL (≈ 0.25 µM)
Citrobacter gillenii
  MIC: 0.06 µg/mL (≈ 0.125 µM)
[1]
  Ratio: 0.5

## CC(C)(O/N=C(\C(=O)N[C@@H]1C(=O)N2C(C(=O)[O-])=C(C[n+]3ccccc3)CS[C@H]12)c1csc(N)n1)C(=O)O [CEFTAZIDIME]
Escherichia coli [2]
  MIC: 0.5 µg/mL (≈ 0.915 µM)
Citrobacter gillenii
  MIC: 0.06 µg/mL (≈ 0.11 µM)
Escherichia coli [3]
  MIC: 0.06 µg/mL (≈ 0.11 µM)
[1]
  Ratio: 0.01

## CCN1CCN(C(=O)N[C@@H](C(=O)N[C@@H]2C(=O)N3[C@@H]2SC(C)(C)[C@@H]3C(=O)O)c2ccccc2)C(=O)C1=O [PIPERACILLIN]
Escherichia coli [2]
  MIC: 32 µg/mL (≈ 61.8 µM)
Citrobacter gillenii
  MIC: 2 µg/mL (≈ 3.86 µM)
Escherichia coli [3]
  MIC: 1 µg/mL (≈ 1.93 µM)
[1]
  Ratio: 61

## CO[C@@]1(NC(=O)C(C(=O)O)c2ccc(O)cc2)C(=O)N2C(C(=O)O)=C(CSc3nnnn3C)CO[C@@H]21 (stereo partly specified) [MOXALACTAM]
Escherichia coli [2]
  MIC: 0.25 µg/mL (≈ 0.48 µM)
Citrobacter gillenii
  MIC: 0.12 µg/mL (≈ 0.231 µM)
Escherichia coli [3]
  MIC: 0.12 µg/mL (≈ 0.231 µM)

## CC1(C)S[C@@H]2[C@H](NC(=O)[C@H](N)c3ccc(O)cc3)C(=O)N2[C@H]1C(=O)O [AMOXICILLIN]
Escherichia coli [2]
  MIC: > 512 µg/mL
Citrobacter gillenii
  MIC: 16 µg/mL (≈ 43.8 µM)
Escherichia coli [3]
  MIC: 2 µg/mL (≈ 5.47 µM)
[1]
  Ratio: 81

## CO[C@@]1(NC(=O)Cc2cccs2)C(=O)N2C(C(=O)O)=C(COC(N)=O)CS[C@@H]21 [CEFOXITIN]
Escherichia coli [2]
  MIC: 2 µg/mL (≈ 4.68 µM)
Citrobacter gillenii
  MIC: 1 µg/mL (≈ 2.34 µM)
Escherichia coli [3]
  MIC: 2 µg/mL (≈ 4.68 µM)

## CC(=O)OCC1=C(C(=O)O)N2C(=O)[C@@H](NC(=O)Cc3cccs3)[C@H]2SC1 [CEPHALOTHIN]
Escherichia coli [2]
  MIC: 8 µg/mL (≈ 20.2 µM)
Citrobacter gillenii
  MIC: 2 µg/mL (≈ 5.04 µM)
Escherichia coli [3]
  MIC: 2 µg/mL (≈ 5.04 µM)
[1]
  Ratio: 11

## CO/N=C(\C(=O)N[C@@H]1C(=O)N2C(C(=O)O)=C(CSc3nc(=O)c(O)nn3C)CS[C@H]12)c1csc(N)n1 [CEFTRIAXONE]
Escherichia coli [2]
  MIC: 0.06 µg/mL (≈ 0.108 µM)
Citrobacter gillenii
  MIC: 0.06 µg/mL (≈ 0.108 µM)
Escherichia coli [3]
  MIC: 0.06 µg/mL (≈ 0.108 µM)

## C[C@@H](O)[C@H]1C(=O)N2C(C(=O)O)=C(SCCNC=N)C[C@H]12 [IMIPENEM ANHYDROUS]
Citrobacter gillenii
  MIC: 0.06 µg/mL (≈ 0.2 µM)
[1]
  Ratio: < 0.01

## CO/N=C(\C(=O)N[C@@H]1C(=O)N2C(C(=O)[O-])=C(C[n+]3cccc4c3CCC4)CS[C@H]12)c1csc(N)n1 [CEFPIROME]
Escherichia coli [2]
  MIC: 0.25 µg/mL (≈ 0.486 µM)
Citrobacter gillenii
  MIC: 0.06 µg/mL (≈ 0.117 µM)
Escherichia coli [3]
  MIC: 0.06 µg/mL (≈ 0.117 µM)
[1]
  Ratio: 1.9

## CO/N=C(\C(=O)N[C@@H]1C(=O)N2C(C(=O)O)=C(COC(N)=O)CS[C@H]12)c1ccco1 [CEFUROXIME]
Escherichia coli [2]
  MIC: 8 µg/mL (≈ 18.9 µM)
Citrobacter gillenii
  MIC: 2 µg/mL (≈ 4.71 µM)
Escherichia coli [3]
  MIC: 2 µg/mL (≈ 4.71 µM)
[1]
  Ratio: 0.4

## C[C@H]1[C@H](NC(=O)/C(=N\OC(C)(C)C(=O)O)c2csc(N)n2)C(=O)N1S(=O)(=O)O [AZTREONAM]
Escherichia coli [2]
  MIC: 0.12 µg/mL (≈ 0.276 µM)
Citrobacter gillenii
  MIC: 0.06 µg/mL (≈ 0.138 µM)
[1]
  Ratio: 0.02

## CC1(C)S[C@@H]2[C@H](NC(=O)[C@H](C(=O)O)c3ccsc3)C(=O)N2[C@H]1C(=O)O [TICARCILLIN]
Escherichia coli [2]
  MIC: > 512 µg/mL
Citrobacter gillenii
  MIC: 64 µg/mL (≈ 166 µM)
Escherichia coli [3]
  MIC: 1 µg/mL (≈ 2.6 µM)
[1]
  Ratio: 180

## CO/N=C(\C(=O)N[C@@H]1C(=O)N2C(C(=O)O)=C(COC(C)=O)CS[C@H]12)c1csc(N)n1 [CEFOTAXIME]
Escherichia coli [2]
  MIC: 1 µg/mL (≈ 2.2 µM)
Citrobacter gillenii
  MIC: 0.06 µg/mL (≈ 0.132 µM)
Escherichia coli [3]
  MIC: 0.06 µg/mL (≈ 0.132 µM)
[1]
  Ratio: 0.2

B1: Gil1 (Citrobacter gillenii), A4KCT8 (protein)
chain: T1 sequence (whole entry)
[4]
  Km: 62 µM
  kcat: 37 s⁻¹
  kcat/Km: 598000 M⁻¹ s⁻¹
[5]
  Km: 1750 µM
  kcat: 1 s⁻¹
  kcat/Km: 600 M⁻¹ s⁻¹
[6]
  Km: 51 µM
  kcat: 286 s⁻¹
  kcat/Km: 5.6e+06 M⁻¹ s⁻¹
[7]
  Km: 10 µM
  kcat: 100 s⁻¹
  kcat/Km: 1e+07 M⁻¹ s⁻¹
[8]
  Km: 84 µM
  kcat: 381 s⁻¹
  kcat/Km: 4.54e+06 M⁻¹ s⁻¹
[9]
  Km: 90 µM
  kcat: 306 s⁻¹
  kcat/Km: 3.4e+06 M⁻¹ s⁻¹
[10]
  Km: 714 µM
  kcat: 7 s⁻¹
  kcat/Km: 10000 M⁻¹ s⁻¹
[11]
  Km: 88 µM
  kcat: 2 s⁻¹
  kcat/Km: 23000 M⁻¹ s⁻¹
[12]
  Km: 2680 µM
  kcat: 77 s⁻¹
  kcat/Km: 29000 M⁻¹ s⁻¹
[13]
  Km: 304 µM
  kcat: 32 s⁻¹
  kcat/Km: 106000 M⁻¹ s⁻¹
[14]
  Km: 2980 µM
  kcat: 0.2 s⁻¹
  kcat/Km: 500 M⁻¹ s⁻¹
[15]
  Km: 938 µM
  kcat: 0.8 s⁻¹
  kcat/Km: 1000 M⁻¹ s⁻¹
